Biological target: T1, Aβ1-42 (Homo sapiens, UniProt P05067)
T1 construct: containing 0.2 µM FITC-Aβ(1-42) and 0.8 µM Aβ(1-42)
Assay: FRET assay of Aβ1-42 oligomer (ADDL) assembly inhibition
Type: biochemical
Conditions: for IC50: assay of Example 1, 0.2 µM FITC-Aβ(1-42) and 0.8 µM Aβ(1-42), 37°C, six concentrations from about 30 µM to about 0.05 µM
Excerpt: Fluorescence (or Förster) Resonance Energy Transfer (FRET) is a distance-dependent, non-radiative transfer of energy in which the de-excitation of one fluorophore (donor) is coupled to excitation of another fluorophore (acceptor). FRET occurs if (1) the quantum of energy emitted by a donor fluorophore corresponds to an acceptor fluorophore's excitation energy, (2) the orientations of donor and acceptor transition dipoles are nearly parallel and (3) the donor fluorescent emission spectrum overlaps the acceptor absorption spectrum. In this assay, assembly of Aβ1-42 oligomer formation is monitored by FRET using N-terminal conjugates of fluorescein-Aβ1-42 as both the donor and acceptor fluorophore (fluorescein-fluorescein Ro~ 45 Ǻ). Aβ1-42 monomers assembling into oligomeric species results in a decrease of fluorescence as the fluorescein labeled Aβ1-42 peptides become proximal to each other and FRET efficiency increases. Inhibition of Aβ1-42 assembly is observed as the absence or attenuation of fluorescein quenching. FRET and FP assays are performed in 384-well Coming Non-Binding Surface, black, opaque microtiter plates, and the assay buffer consists of 50 mM MOPS-Tris (pH 8.0) with 100 mM MgCl2. The assay volume, containing 0.2 µM FITC-Aβ(1-42) and 0.8 µM Aβ(1-42), is 50 µl and the temperature is 37°C. ADDL assembly is monitored on a Tecan GENios Pro plate reader, exciting at a wavelength of 485 nm and detecting emission at a wavelength of 515 nm. Kinetic traces are collected by recording fluorescence intensity and polarization readings every five minutes over about a three to about a six-hour time course. […] Positive control reactions contain all buffer components in the absence of added small molecule or antibody reagents. To test for ADDL assembly inhibition, the non-peptidic compound was incubated with the peptide mixture at six concentrations from about 30 µM decreasing to about 0.05 µM.

T1 sequence (P05067 672-713 limits assumed): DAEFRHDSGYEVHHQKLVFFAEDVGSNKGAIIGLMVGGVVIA

| Compound | IC50 | inhibition of Aβ1-42 monomer assembly into Aβ oligomers (standard FRET assay conditions of Example 1, comparative example, FIG 2) | inhibition of Aβ1-42 oligomer assembly (Test Compound A ranging from 0.05 to 3 mM, FIG. 1) |
| --- | --- | --- | --- |
| COc1ccccc1NC(=O)C(=O)N/N=C(/CC(=O)c1cccs1)C(F)(F)F [Compound 1, N-(2-Methoxy-phenyl)-2-oxo-2-{N'-[3-oxo-3-thiophen-2-yl-1-trifluoromethyl-prop-(Z)-ylidene]-hydrazino}-acetamide] | 3.9 µM |  |  |
| CCOC(=O)c1c(NC(=O)C(=O)N/N=C/c2c(O)ccc3ccccc23)sc2c1CCC(C)C2 (centres unmarked) [Compound 3, 2-{[1-(2-Hydroxynaphthalen-1-yl)-meth-(E)-ylidene-hydrazinooxalyl]-amino}-6-methyl-4,5,6,7-tetrahydro-benzo[b]thiophene-3-carboxylic acid ethyl ester] | 4.4 µM |  |  |
| NCCCS(=O)(=O)O [Alzhemed, 3-amino-1-propanesulfonic acid, reference compound] |  | inability |  |
| CCOC(=O)c1c(NC(=O)C(=O)N/N=C/c2cccc(OC)c2O)sc2c1CCC(C)C2 (centres unmarked) [Compound 2, 2-{[1-(2-Hydroxy-3-methoxy-phenyl)-meth-(E)-ylidene-hydrazinooxalyl]-amino}-6-methyl-4,5,6,7-tetrahydro-benzo[b]thiophene-3-carboxylic acid ethyl ester] | 3.5 µM |  |  |
| COc1ccccc1NC(=O)C(=O)N1N=C(CC(C)C)CC1(O)C(F)(F)F (centres unmarked) [Compound 5, 2-(5-hydroxy-3-isobutyl-5-(trifluoromethyl)-4,5-dihydro-1H-pyrazol-1-yl)-N-(2-methoxyphenyl)-2-oxoacetamide] | 3.2 µM |  |  |
| CCOC(=O)c1c(NC(=O)C(=O)N/N=C/c2ccccc2O)sc2c1CCC(C)C2 (centres unmarked) [Compound 4, 2-{[1-(2-Hydroxyphenyl)-meth-(E)-ylidene-hydrazinooxalyl]-amino}-6-methyl-4,5,6,7-tetrahydro-benzo[b]thiophene-3-carboxylic acid ethyl ester] | 1.1 µM |  | dose dependent inhibition |
| O=C(N/N=C/c1ccc2ccccc2c1O)c1ccccc1O [Compound 6] | 3.8 µM |  |  |
